Read-outs that look alike come from different tables or passages of the source.
Tests used:
[1] = type: physicochemical; conditions: SGF with pepsin, pH 1.5, 37° C., 0.5 mM
[2] = type: physicochemical; conditions: DI water, 25° C., 0.5 mM

Structure (SMILES) | Condition 1 Conversion (%) ([1]; time 1 min) | Condition 1 Conversion (%) ([1]; time 5 min) | Condition 1 Conversion (%) ([1]; time 30 min) | Condition 1 Conversion (%) ([1]; time 1 h) | Condition 1 Conversion (%) ([1]; time 4 h) | Condition 1 Conversion (%) ([1]; time 24 h) | Condition 2 Conversion (%) ([2]; time 1 min) | Condition 2 Conversion (%) ([2]; time 5 min) | Condition 2 Conversion (%) ([2]; time 30 min) | Condition 2 Conversion (%) ([2]; time 1 h) | Condition 2 Conversion (%) ([2]; time 4 h) | Condition 2 Conversion (%) ([2]; time 24 h)
COc1ccc([C@@]23CC/C(=N\NC(=O)NCCc4cccs4)C[C@@H]2N(C)CC3)cc1OC [Compound 256, 1-[[(3aS,7aS)-3a-(3,4-dimethoxyphenyl)-1-methyl-2,3,4,5,7,7a-hexahydroindol-6-ylidene]amino]-3-[2-(2-thienyl)ethyl]urea] | 0 | 0 | 100 | 100 | 23 | 100 | 0 | 0 | 0 | 0 | 43 | 0
COc1ccc([C@@]23CC/C(=N\NC(=O)Nc4ccc(N5CCN(C)CC5)cc4)C[C@@H]2N(C)CC3)cc1OC [Compound 257, 1-[[(3aS,7aS)-3a-(3,4-dimethoxyphenyl)-1-methyl-2,3,4,5,7,7a-hexahydroindol-6-ylidene]amino]-3-[4-(4-methylpiperazin-1-yl)phenyl]urea] | 4.6 | 54.1 | 100 | 100 | 100 | 100 | 0 | 0 | 5 | 8 | 30 | 95
COc1ccc([C@@]23CC/C(=N\NC(=O)NC[C@H]4CC[C@H](C(=O)O)CC4)C[C@@H]2N(C)CC3)cc1OC [Compound 258, 4-[[[[(3aS,7aS)-3a-(3,4-dimethoxyphenyl)-1-methyl-2,3,4,5,7,7a-hexahydroindol-6-ylidene]amino]carbamoylamino]methyl]cyclohexanecarboxylicacid] | 0 | 0 | 42.82 | 100 | 100 | 100 | 0 | 0 | 0 | 0 | 0 | 0
COc1ccc([C@@]23CC/C(=N/NC(=O)Nc4ccccc4Cl)C[C@@H]2N(C)CC3)cc1OC [Compound 270, 1-[(Z)-[(3aS,7aS)-3a-(3,4-dimethoxyphenyl)-1-methyl-2,3,4,5,7,7a-hexahydroindol-6-ylidene]amino]-3-(2-chlorophenyl)urea] | 0 | 0 | 1 | 1 | – | – | 0 | 0 | 0 | 0 | – | –
COc1ccc([C@@]23CCC(=NNC(=O)C45CC6CC(CC(C6)C4)C5)C[C@@H]2N(C)CC3)cc1OC [Compound 271, N-[[(3aS,7aS)-3a-(3,4-dimethoxyphenyl)-1-methyl-2,3,4,5,7,7a-hexahydroindol-6-ylidene]amino]adamantane-1-carboxamide] | 100 | 100 | 100 | 100 | 100 | 100 | 78.3 | 70.3 | 82 | 85.7 | 94.5 | 100
COc1ccc([C@@]23CC/C(=N/OC45CC6CC(CC(C6)C4)C5)C[C@@H]2N(C)CC3)cc1OC [Compound 274, (Z,3aS,7aS)-N-(1-adamantyloxy)-3a-(3,4-dimethoxyphenyl)-1-methyl-2,3,4,5,7,7a-hexahydroindol-6-imine] | 0 | 0 | 0 | 0 | 35.5 | 39.91 | 0 | 0 | 0 | 0 | 0 | 0
COc1ccc([C@@]23CCC(=NOCCC45CC6CC(CC(C6)C4)C5)C[C@@H]2N(C)CC3)cc1OC [Compound 276, (3aS,7aS)-N-[2-(1-adamantyl)ethoxy]-3a-(3,4-dimethoxyphenyl)-1-methyl-2,3,4,5,7,7a-hexahydroindol-6-imine] | 0 | 0 | 0 | 2.77 | 5.48 | 5.5 | 0 | 0 | 0 | 0 | 0 | 0
COc1ccc([C@@]23CCC(=NNC(=O)Nc4cccnc4)C[C@@H]2N(C)CC3)cc1OC [Compound 299, 1-[[(3aS,7aS)-3a-(3,4-dimethoxyphenyl)-1-methyl-2,3,4,5,7,7a-hexahydroindol-6-ylidene]amino]-3-(3-pyridyl)urea] | 53 | 100 | 100 | 100 | 100 | 100 | 0 | 0 | 0 | 0 | 8 | 13
COc1ccc([C@@]23CC/C(=N/OC45CC6CC(CC(C6)C4)C5)C[C@@H]2N(C)CC3)cc1OC [Compound 301, (Z,3aS,7aS)-N-(1-adamantyloxy)-3a-(3,4-dimethoxyphenyl)-1-methyl-2,3,4,5,7,7a-hexahydroindol-6-imine] | 0 | 0 | 0 | 0 | 100 | 100 | 0 | 0 | 0 | 0 | 0 | 0
COc1ccc([C@@]23CCC(=NNc4ccc(F)cc4)C[C@@H]2N(C)CC3)cc1OC [Compound 361, (3aS,7aS)-3a-(3,4-dimethoxyphenyl)-6-(2-(4-fluorophenyl)-hydrazineylidene)-1-methyloctahydro-1H-indole] | 10 | 100 | 100 | 100 | 100 | 100 | 0 | 0 | 0 | 0 | 45 | 100

Source: patent US20250051277A1, “DELIVERY OF THERAPEUTIC ALKALOID COMPOUNDS” (Sensorium Therapeutics, Inc., priority 2021, published 2025)
